pIC50: −log10 of the molar value.
Each compound was assayed against endogenous CGRP receptor (Homo sapiens, UniProt O60894+Q16602) (assay: CGRP functional antagonism using SK-N-MC-BLA (4C10), β-lactamase transcriptional reporter assay). Details: SK-N-MC (4C10) cells, inhibition of β-lactamase expression in the presence of 200 pM CGRP.
Sequence of endogenous CGRP receptor (Q16602 23-461): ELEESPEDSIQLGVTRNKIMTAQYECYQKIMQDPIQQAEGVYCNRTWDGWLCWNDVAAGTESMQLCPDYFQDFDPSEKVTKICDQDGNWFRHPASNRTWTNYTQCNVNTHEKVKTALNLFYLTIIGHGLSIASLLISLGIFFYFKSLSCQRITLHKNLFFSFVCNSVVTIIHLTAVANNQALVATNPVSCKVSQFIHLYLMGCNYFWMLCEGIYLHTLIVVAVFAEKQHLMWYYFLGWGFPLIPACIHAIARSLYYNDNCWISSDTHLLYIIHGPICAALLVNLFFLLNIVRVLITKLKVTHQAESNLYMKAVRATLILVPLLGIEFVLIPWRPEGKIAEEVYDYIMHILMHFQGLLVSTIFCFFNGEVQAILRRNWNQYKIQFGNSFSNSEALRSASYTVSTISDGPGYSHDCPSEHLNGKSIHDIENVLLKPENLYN
Sequence of endogenous CGRP receptor (O60894 27-148): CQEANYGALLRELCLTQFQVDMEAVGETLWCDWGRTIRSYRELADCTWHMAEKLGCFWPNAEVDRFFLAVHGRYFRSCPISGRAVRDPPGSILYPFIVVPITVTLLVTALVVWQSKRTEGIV
Assay type: cell-based
From the text: Measuring CGRP Functional Antagonism Using SK-N-MC-BLA (4C10):
CGRP functional antagonism was characterized in a cell based transcriptional assay using a recombinant SK-N-MC line. To introduce the transcriptional reporter system, SK-N-MC cell line was transduced with a retroviral vector containing β-lactamase gene downstream of cAMP responsive promoter. The expression of β-lactamase is triggered by cAMP increase that is a downstream event of activation of endogenous CGRP receptor. Single clones were separated using Fluorescent Activated Cell Sorting (FACS) based on CGRP induced β-lactamase activity. β-lactamase activity was measured using a fluorescence energy transfer (FRET) dye, CCF4. […] To evaluate functional antagonist activity of compounds in SK-N-MC (4C10) line, compounds were evaluated for their inhibition of β-lactamase expression in the presence of CGRP.
SK-N-MC (4C10) was cultured in Minimal Essential Media (MEM) (Invitrogen) supplemented with 1 mM non-essential amino acids solution (Invitrogen), 100 units/ml Penicillin-Streptomycin (Invitrogen), 1 mM sodium pyruvate (Invitrogen) and 10% fetal bovine serum. For the β-lactamase assay, low serum, 1% FBS in MEM was used. 30,000 cells were plated into each wells of poly-D-lysine coated 384-well plate (Becton Dickinson) a day prior to the assay. SK-N-MC (4C10) was preincubated with compounds for 30 min before the addition of 200 pM CGRP. The assay was incubated for 3 hours at 37° C. to allow β-lactamase expression. CCF4 dye was added and incubated for 2 hours at room temperature. […] Curve fitting and IC50 calculation were carried about using MOD3.
In the case of CC(C)(C)CC1SC(CC(=O)N2CCC(n3c(=O)[nH]c4ncccc43)CC2)C(=O)N1c1ccccc1 (stereo not shown) [Compound 417], the pIC50 was 5.30 to 6.00.
Work on CCN1CCN(c2c(F)cccc2C2SC(CC(=O)N3CCC(n4cc(-c5ccccc5)[nH]c4=O)CC3)C(=O)N2CCC(C)(C)C)CC1 (stereo not shown) [Compound 346] yielded a pIC50 greater than 6.00.
For CC(C)(C)CCN1C(=O)C(CC(=O)N2CCC(Nc3ccc(Cl)cc3)CC2)SC1c1cccc(F)c1N1CCN(C(C)(C)C)CC1 (stereo not shown) [Compound 448], the pIC50 was greater than 6.00.
CC(C)N1CCN(c2c(F)cccc2C2SC(CC(=O)N3CCC(n4cc(-c5ccccc5)[nH]c4=O)CC3)C(=O)N2CCC(C)(C)C)CC1 (stereo not shown) [Compound 342] gave a pIC50 of 5.30 to 6.00.
In the case of CC(C)CCN1C(=O)C(CC(=O)N2CCC(N3CCc4ccccc4NC3=O)CC2)SC1C1CCOCC1 (stereo not shown) [Compound 258], the pIC50 was 5.30 to 6.00.
CC(C)(C)CCN1C(=O)C(CC(=O)N2CCC(N3CCc4ccccc4NC3=O)CC2)SC1c1ccccc1N1CCN(CCO)CC1 (stereo not shown) [Compound 372] showed a pIC50 of less than 5.30.
CN1CCCN(c2ccccc2C2SC(CC(=O)N3CCC(N4Cc5ccccc5NC4=O)CC3)C(=O)N2CCC(C)(C)C)CC1 (stereo not shown) [Compound 369] showed a pIC50 of 5.30 to 6.00.
For CC(C)(C)CCN1C(=O)C(CC(=O)N2CCC(N3Cc4ccccc4NC3=O)CC2)SC1c1cccc2cc[nH]c12 (stereo not shown) [Compound 168], the pIC50 was 5.30 to 6.00.
For CC(C)CCN1C(=O)C(CC(=O)N2CCC3(CCc4ccccc43)CC2)SC1c1ccccc1 (stereo not shown) [Compound 167], the pIC50 was less than 5.30.
CN(C)CCCN(C)c1ccccc1C1SC(CC(=O)N2CCC(n3c(=O)[nH]c4ncccc43)CC2)C(=O)N1CCC(C)(C)C (stereo not shown) [Compound 382] showed a pIC50 greater than 6.00.
For CCCCCCCC1SC(CC(=O)N2CCC(N3CCc4ccccc4NC3=O)CC2)C(=O)N1CCC(C)C (stereo not shown) [Compound 74], the pIC50 was 5.30 to 6.00.
Compound CC(C)(C)CCN1C(=O)[C@H](CC(=O)N2CCC(N3Cc4ccccc4NC3=O)CC2)SC1c1cccc(F)c1N1CCC(N)C1 (stereo partly shown) [Compound 467] has a pIC50 of 5.30 to 6.00.
Compound CN1CCN(c2ccccc2C2SC(CC(=O)N3CCC(n4cc(-c5ccccc5)[nH]c4=O)CC3)C(=O)N2CCC(C)(C)C)CC1 (stereo not shown) [Compound 257] has a pIC50 greater than 6.00.
CCC1SC(CC(=O)N2CCC(n3c(=O)[nH]c4ccccc43)CC2)C(=O)N1CC(F)(F)F (stereo not shown) [Compound 218] gave a pIC50 of less than 5.30.
CN1CCN(c2c(F)cccc2C2SC(CC(=O)N3CCC(n4cc(-c5ccccc5)[nH]c4=O)CC3)C(=O)N2CCC(C)(C)C)CC1 (stereo not shown) [Compound 325] gave a pIC50 greater than 6.00.
Compound CC(C)(C)CCN1C(=O)C(CC(=O)N2CCC(n3c(=O)[nH]c4ccccc43)CC2)SC1c1ccccc1N1CCCCC1 (stereo not shown) [Compound 298] has a pIC50 greater than 6.00.
CC(C)(C)CCN1C(=O)C(CC(=O)N2CCC(N3CCc4ccccc4NC3=O)CC2)SC12CCCCCC2 (stereo not shown) [Compound 57] showed a pIC50 greater than 6.00.
For CC(=O)Nc1ccc(C)cc1C1(O)CCN(C(=O)CC2SC(c3ccccc3)N(CCC(C)C)C2=O)CC1 (stereo not shown) [Compound 143], the pIC50 was less than 5.30.
CC(C)CCN1C(=O)C(CC(=O)N2CCC3(CC2)C(=O)N(C)c2ccccc23)SC1c1ccccc1 (stereo not shown) [Compound 29] was tested, and the pIC50 was less than 5.30.
In the case of CN1CCN(c2cc(F)ccc2C2SC(CC(=O)N3CCC(n4c(=O)[nH]c5ncccc54)CC3)C(=O)N2CCC(C)(C)C)CC1 (stereo not shown) [Compound 362], the pIC50 was 5.30 to 6.00.
With CC(C)CCN1C(=O)C(CC(=O)N2CCC(N3CCc4ccccc4NC3=O)CC2)SC1c1cccnc1N1CCOCC1 (stereo not shown) [Compound 125] the pIC50 was greater than 6.00.
With CC(C)(C)CCN1C(=O)C(CC(=O)N2CCC(N3CCc4ccccc4NC3=O)CC2)SC1c1ccccc1N1CCCCC1 (stereo not shown) [Compound 7] the pIC50 was greater than 6.00.
C=CCN1C(=O)C(CC(=O)N2CCC(N3Cc4ccccc4NC3=O)CC2)SC1c1ccccc1 (stereo not shown) [Compound 254] showed a pIC50 of 5.30 to 6.00.
Cc1cc(C)c(C2SC(CC(=O)N3CCC(N4CCc5ccccc5NC4=O)CC3)C(=O)N2CCC(C)C)c(C)c1 (stereo not shown) [Compound 21] was tested, and the pIC50 was greater than 6.00.
With CC(C)CCN1C(=O)C(CC(=O)N2CCC(n3c(=O)[nH]c4ccccc43)CC2)SC1c1ccccc1N1CCCCC1 (stereo not shown) [Compound 292] the pIC50 was 5.30 to 6.00.
CN(C)C1CCN(c2ccccc2C2SC(CC(=O)N3CCC(N4CCc5ccccc5NC4=O)CC3)C(=O)N2CCC(C)(C)C)CC1 (stereo not shown) [Compound 419] was tested, and the pIC50 was 5.30 to 6.00.
Compound CC(C)(C)CCN1C(=O)C(CC(=O)N2CCC(N3Cc4ccccc4NC3=O)CC2)SC1c1ccccc1N1CCCCC1 (stereo not shown) [Compound 235] has a pIC50 of 5.30 to 6.00.
With CC(C)(C)CCN1C(=O)C(CC(=O)N2CCC(N3Cc4ccccc4NC3=O)CC2)SC1(C)c1ccccc1 (stereo not shown) [Compound 312] the pIC50 was greater than 6.00.
In the case of CCCN1C(=O)[C@H](CC(=O)N2CCC(N3CCc4ccccc4NC3=O)CC2)SC1c1cccc(F)c1N1CCN(C(C)(C)C)CC1 (stereo partly shown) [Compound 536], the pIC50 was greater than 6.00.
CC(C)(C)CC1SC(CC(=O)N2CCC(n3c(=O)[nH]c4ncccc43)CC2)C(=O)N1c1ccccc1N1CCCCC1 (stereo not shown) [Compound 428] gave a pIC50 of less than 5.30.
Work on CCCCN1CCN(c2ccccc2C2SC(CC(=O)N3CCC(n4c(=O)[nH]c5ncccc54)CC3)C(=O)N2CCC(C)(C)C)CC1 (stereo not shown) [Compound 366] yielded a pIC50 greater than 6.00.
With O=C(CC1SC(c2ccccc2F)N(CC2CCCCC2)C1=O)N1CCC(N2CCc3ccccc3NC2=O)CC1 (stereo not shown) [Compound 164] the pIC50 was 5.30 to 6.00.
CC(C)CCN1C(=O)C(CC(=O)N2CCC(n3c(=O)[nH]c4ccccc43)CC2)SC1c1ccccc1N1CCOCC1 (stereo not shown) [Compound 294] showed a pIC50 greater than 6.00.
For O=C(CC1SC(c2c(F)cccc2F)N(CC2CCCCC2)C1=O)N1CCC(N2Cc3ccccc3NC2=O)CC1 (stereo not shown) [Compound 210], the pIC50 was greater than 6.00.
In the case of CN1CCCN(c2ccccc2C2SC(CC(=O)N3CCC(N4CCc5ccccc5NC4=O)CC3)C(=O)N2CCC(C)(C)C)CC1 (stereo not shown) [Compound 370], the pIC50 was greater than 6.00.
CN1CCN(c2ccccc2[C@@H]2S[C@](C)(CC(=O)N3CCC(n4c(=O)[nH]c5ncccc54)CC3)C(=O)N2CCC(C)(C)C)CC1 [Compound 378] was tested, and the pIC50 was greater than 6.00.
In the case of O=C(CC1SC(c2ccccc2)N(Cc2ccncc2)C1=O)N1CCC(n2c(=O)[nH]c3ccccc32)CC1 (stereo not shown) [Compound 108], the pIC50 was less than 5.30.
Compound CC(C)CCN1C(=O)C(CC(=O)N2CCC(n3cc(-c4ccccc4)[nH]c3=O)CC2)SC1c1ccc(Cl)cc1 (stereo not shown) [Compound 112] has a pIC50 of less than 5.30.
For CCCOc1ccc(C2SC(CC(=O)N3CCC(N4Cc5ccccc5NC4=O)CC3)C(=O)N2CCC(C)C)cc1 (stereo not shown) [Compound 103], the pIC50 was less than 5.30.
With CC(C)N1C(=O)C(CC(=O)N2CCC(N3CCc4ccccc4NC3=O)CC2)SC1c1ccccc1 (stereo not shown) [Compound 24] the pIC50 was 5.30 to 6.00.
Work on CC(C)CCN1C(=O)C(CC(=O)N2CCC(N3CCc4ccccc4NC3=O)CC2)SC1c1c(F)cccc1Cl (stereo not shown) [Compound 221] yielded a pIC50 greater than 6.00.
In the case of Cc1cccc(C)c1C1SC(CC(=O)N2CCC(N3Cc4ccccc4NC3=O)CC2)C(=O)N1CCC(C)C (stereo not shown) [Compound 134], the pIC50 was greater than 6.00.
With CN(c1ccccc1C1SC(CC(=O)N2CCC(n3c(=O)[nH]c4ncccc43)CC2)C(=O)N1CCC(C)(C)C)[C@@H]1CCN(Cc2ccccc2)C1 (stereo partly shown) [Compound 408] the pIC50 was greater than 6.00.
For CC(C)(C)CCN1C(=O)C(CC(=O)N2CCC(n3c(=O)[nH]c4ccccc43)CC2)SC12c1ccccc1-c1ccccc12 (stereo not shown) [Compound 311], the pIC50 was 5.30 to 6.00.
With CC(C)CCN1C(=O)C(CC(=O)N2CCC(NC(=O)Nc3ccccn3)CC2)SC1c1ccccc1 (stereo not shown) [Compound 200] the pIC50 was less than 5.30.
For O=C(CC1SC(C2CCCCC2)N(c2ccc(N3CCOCC3)cc2)C1=O)N1CCC(n2c(=O)[nH]c3ncccc32)CC1 (stereo not shown) [Compound 425], the pIC50 was greater than 6.00.
CC(C)(C)CCN1C(=O)C(CC(=O)N2CCC(N3Cc4ccccc4NC3=O)CC2)SC1c1c[nH]cn1 (stereo not shown) [Compound 305] was tested, and the pIC50 was 5.30 to 6.00.
CC(C)(C)CCN1C(=O)[C@H](CC(=O)N2CCC(n3c(=O)[nH]c4ncccc43)CC2)S[C@H]1c1cccc(F)c1N1CCC(O)C1 (stereo partly shown) [Compound 468] was tested, and the pIC50 was greater than 6.00.
CCCC1SC(CC(=O)N2CCC(N3Cc4ccccc4NC3=O)CC2)C(=O)N1CCC(C)C (stereo not shown) [Compound 192] gave a pIC50 greater than 6.00.
For CN(C)C1CCN(c2ccccc2C2SC(CC(=O)N3CCC(n4c(=O)[nH]c5ncccc54)CC3)C(=O)N2CCC(C)(C)C)CC1 (stereo not shown) [Compound 418], the pIC50 was less than 5.30.
In the case of CC(C)CCN1C(=O)C(CC(=O)N2CCC(N3CCc4ccccc4NC3=O)CC2)SC1c1ccc(F)c(F)c1 (stereo not shown) [Compound 155], the pIC50 was greater than 6.00.
With CC(C)(C)CCN1C(=O)C(CC(=O)N2CCC(N3Cc4ccccc4NC3=O)CC2)SC12c1ccccc1-c1ccccc12 (stereo not shown) [Compound 309] the pIC50 was 5.30 to 6.00.
CC(C)(C)CCN1C(=O)C(CC(=O)N2CCC(n3c(=O)[nH]c4ncccc43)CC2)SC1c1cccc(F)c1N1CCN(C2CC2)CC1 (stereo not shown) [Compound 390] gave a pIC50 of less than 5.30.
CCC1SC(CC(=O)N2CCC(n3cc(-c4ccccc4)[nH]c3=O)CC2)C(=O)N1CC1CC1 (stereo not shown) [Compound 146] gave a pIC50 of less than 5.30.
Work on CC(C)CCN1C(=O)C(CC(=O)N2CCC(N3Cc4ccccc4NC3=O)CC2)SC1c1ccc(N(C)C)cc1 (stereo not shown) [Compound 124] yielded a pIC50 of 5.30 to 6.00.
With CN1CCN(c2cccc(C3SC(CC(=O)N4CCC(n5c(=O)[nH]c6ncccc65)CC4)C(=O)N3CCC(C)(C)C)c2)CC1 (stereo not shown) [Compound 413] the pIC50 was greater than 6.00.
COC(=O)[C@H](CC1CCCCC1)N1C(=O)C(CC(=O)N2CCC(N3Cc4ccccc4NC3=O)CC2)SC1c1ccccc1 (stereo partly shown) [Compound 55] gave a pIC50 of 5.30 to 6.00.
In the case of CC(C)(C)CCN1C(=O)[C@H](CC(=O)N2CCC(N3CCc4ccccc4NC3=O)CC2)SC1c1cccc(F)c1N1CCC(N)C1 (stereo partly shown) [Compound 466], the pIC50 was greater than 6.00.

From patent US8163737B2 (Vertex Pharmaceuticals Incorporated, priority 2006, dated 2012)
